Among the data in ChEMBL document CHEMBL5608259 (J Med Chem, 2024) are IC50 values, retold here.

As a reminder, the IC50 is the concentration that gives 50% inhibition.

Bounds are passed on as bounds.

In test [1] the target is T1, Protein arginine N-methyltransferase 1 (Homo sapiens, UniProt Q99873). In words: Inhibition of PRMT1 (unknown origin) incubated for 1 hr in presence of 3H-SAM by topcount plate reader analysis.
The target in test [2] is T2, Protein arginine N-methyltransferase 3 (Homo sapiens, UniProt O60678). Kind of test: Inhibition of PRMT3 (unknown origin) incubated for 1 hr in presence of 3H-SAM by topcount plate reader analysis.
Test [3] has as its target T3, Histone-arginine methyltransferase CARM1 (Homo sapiens, UniProt Q86X55).
T3 sequence (Q86X55 whole entry): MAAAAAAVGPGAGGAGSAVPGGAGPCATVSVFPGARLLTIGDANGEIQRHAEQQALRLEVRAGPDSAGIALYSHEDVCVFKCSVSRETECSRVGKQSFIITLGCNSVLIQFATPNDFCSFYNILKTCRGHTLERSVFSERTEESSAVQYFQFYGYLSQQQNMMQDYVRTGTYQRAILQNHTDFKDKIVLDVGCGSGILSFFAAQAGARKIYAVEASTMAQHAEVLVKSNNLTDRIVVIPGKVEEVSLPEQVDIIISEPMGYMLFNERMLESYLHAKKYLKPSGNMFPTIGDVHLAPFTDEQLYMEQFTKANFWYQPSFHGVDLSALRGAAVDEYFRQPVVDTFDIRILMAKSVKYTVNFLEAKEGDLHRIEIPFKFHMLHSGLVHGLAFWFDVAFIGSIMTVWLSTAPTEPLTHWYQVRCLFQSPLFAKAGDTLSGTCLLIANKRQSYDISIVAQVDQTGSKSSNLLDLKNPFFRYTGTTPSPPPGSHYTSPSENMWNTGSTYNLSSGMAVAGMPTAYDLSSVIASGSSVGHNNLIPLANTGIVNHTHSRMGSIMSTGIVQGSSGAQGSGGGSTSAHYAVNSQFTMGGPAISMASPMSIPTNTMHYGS
In words: Inhibition of PRMT4 (unknown origin) incubated for 1 hr in presence of 3H-SAM by topcount plate reader analysis.

Another test deals with PRMT5/MEP50 complex (Homo sapiens, UniProt O14744). In words: Inhibition of PRMT5/MEP50 (unknown origin) incubated for 1 hr in presence of 3H-SAM by topcount plate reader analysis. The test is classed as protein-complex assay.
Test [4] has as its target T4, Protein arginine N-methyltransferase 6 (Homo sapiens, UniProt Q96LA8). In words: Inhibition of PRMT6 (unknown origin) incubated for 1 hr in presence of 3H-SAM by topcount plate reader analysis.
Test [5] concerns the target T5, Protein arginine N-methyltransferase 7 (Homo sapiens, UniProt Q9NVM4).
T5 sequence (Q9NVM4 whole entry): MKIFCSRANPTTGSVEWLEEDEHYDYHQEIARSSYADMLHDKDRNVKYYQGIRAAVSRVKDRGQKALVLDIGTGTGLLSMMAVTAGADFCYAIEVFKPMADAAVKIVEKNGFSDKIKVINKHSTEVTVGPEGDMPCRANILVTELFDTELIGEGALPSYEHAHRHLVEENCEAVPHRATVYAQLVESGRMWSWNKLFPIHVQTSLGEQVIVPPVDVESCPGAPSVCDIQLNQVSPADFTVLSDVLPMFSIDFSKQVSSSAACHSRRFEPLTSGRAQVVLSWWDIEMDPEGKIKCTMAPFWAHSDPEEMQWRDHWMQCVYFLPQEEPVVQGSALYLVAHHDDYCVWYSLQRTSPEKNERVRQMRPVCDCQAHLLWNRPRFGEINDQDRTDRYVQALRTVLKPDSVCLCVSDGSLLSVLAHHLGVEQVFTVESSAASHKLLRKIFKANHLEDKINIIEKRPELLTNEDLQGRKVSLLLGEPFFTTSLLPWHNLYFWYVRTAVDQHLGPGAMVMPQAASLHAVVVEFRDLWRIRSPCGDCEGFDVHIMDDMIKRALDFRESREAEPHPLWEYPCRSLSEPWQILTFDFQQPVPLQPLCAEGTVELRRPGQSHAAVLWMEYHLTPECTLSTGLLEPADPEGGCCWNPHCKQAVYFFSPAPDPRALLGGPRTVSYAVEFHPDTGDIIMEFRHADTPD
In words: Inhibition of PRMT7 (unknown origin) incubated for 1 hr in presence of 3H-SAM by topcount plate reader analysis.

For test [6], the target named is T6, Protein arginine N-methyltransferase 8 (Homo sapiens, UniProt Q9NR22). In words: Inhibition of PRMT8 (unknown origin) incubated for 1 hr in presence of 3H-SAM by topcount plate reader analysis.
For test [7], the target named is T4, Protein arginine N-methyltransferase 6. Kind of test: Inhibition of PRMT6 (unknown origin).
In test [8] the target is T2, Protein arginine N-methyltransferase 3. In words: Inhibition of PRMT3 (unknown origin).
The target in test [9] is T3, Histone-arginine methyltransferase CARM1. Kind of test: Inhibition of PRMT4 (unknown origin).
In test [10] the target is Protein arginine N-methyltransferase 5 (Homo sapiens, UniProt O14744). In words: Inhibition of PRMT5 (unknown origin).
The target of test [11] is T5, Protein arginine N-methyltransferase 7. Kind of test: Inhibition of PRMT7 (unknown origin).
Test [12] has as its target T6, Protein arginine N-methyltransferase 8. In words: Inhibition of PRMT8 (unknown origin).
For test [13], the target named is T1, Protein arginine N-methyltransferase 1. In words: Inhibition of PRMT1 (unknown origin).

T4 sequence (Q96LA8 whole entry): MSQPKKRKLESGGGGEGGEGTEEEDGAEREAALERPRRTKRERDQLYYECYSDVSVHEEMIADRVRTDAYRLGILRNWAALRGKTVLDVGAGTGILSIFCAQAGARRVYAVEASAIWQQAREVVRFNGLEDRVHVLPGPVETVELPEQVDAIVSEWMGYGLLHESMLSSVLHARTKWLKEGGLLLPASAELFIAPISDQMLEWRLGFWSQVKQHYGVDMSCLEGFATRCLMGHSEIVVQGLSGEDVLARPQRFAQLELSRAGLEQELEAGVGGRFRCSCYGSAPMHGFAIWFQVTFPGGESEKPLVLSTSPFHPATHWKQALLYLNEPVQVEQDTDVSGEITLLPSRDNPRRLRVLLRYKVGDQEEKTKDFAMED
T2 sequence (O60678 whole entry): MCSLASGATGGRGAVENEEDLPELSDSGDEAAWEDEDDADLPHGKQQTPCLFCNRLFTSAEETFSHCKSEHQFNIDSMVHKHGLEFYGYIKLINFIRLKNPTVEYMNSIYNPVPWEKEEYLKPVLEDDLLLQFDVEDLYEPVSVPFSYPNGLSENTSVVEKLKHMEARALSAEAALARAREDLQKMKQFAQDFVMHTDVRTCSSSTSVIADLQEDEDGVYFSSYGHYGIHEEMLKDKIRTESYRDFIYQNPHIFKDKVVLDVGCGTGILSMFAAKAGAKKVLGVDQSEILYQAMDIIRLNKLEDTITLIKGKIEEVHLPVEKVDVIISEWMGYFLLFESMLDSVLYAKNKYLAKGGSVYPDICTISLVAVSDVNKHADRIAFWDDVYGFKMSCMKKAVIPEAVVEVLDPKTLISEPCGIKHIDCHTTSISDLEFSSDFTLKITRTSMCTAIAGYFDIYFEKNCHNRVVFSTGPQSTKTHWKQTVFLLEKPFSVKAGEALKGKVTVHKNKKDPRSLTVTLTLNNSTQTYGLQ
T6 sequence (Q9NR22 whole entry): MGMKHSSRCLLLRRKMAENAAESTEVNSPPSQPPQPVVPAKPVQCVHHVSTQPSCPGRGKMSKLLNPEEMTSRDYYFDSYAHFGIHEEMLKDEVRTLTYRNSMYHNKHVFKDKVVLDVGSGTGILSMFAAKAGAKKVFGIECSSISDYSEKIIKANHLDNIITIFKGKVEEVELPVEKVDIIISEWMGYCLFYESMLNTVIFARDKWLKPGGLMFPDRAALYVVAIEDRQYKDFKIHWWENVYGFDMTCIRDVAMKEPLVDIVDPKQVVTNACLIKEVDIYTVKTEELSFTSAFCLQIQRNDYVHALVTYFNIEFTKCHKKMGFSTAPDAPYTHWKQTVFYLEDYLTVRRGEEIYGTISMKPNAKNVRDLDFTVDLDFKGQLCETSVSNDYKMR
T1 sequence (Q99873 whole entry): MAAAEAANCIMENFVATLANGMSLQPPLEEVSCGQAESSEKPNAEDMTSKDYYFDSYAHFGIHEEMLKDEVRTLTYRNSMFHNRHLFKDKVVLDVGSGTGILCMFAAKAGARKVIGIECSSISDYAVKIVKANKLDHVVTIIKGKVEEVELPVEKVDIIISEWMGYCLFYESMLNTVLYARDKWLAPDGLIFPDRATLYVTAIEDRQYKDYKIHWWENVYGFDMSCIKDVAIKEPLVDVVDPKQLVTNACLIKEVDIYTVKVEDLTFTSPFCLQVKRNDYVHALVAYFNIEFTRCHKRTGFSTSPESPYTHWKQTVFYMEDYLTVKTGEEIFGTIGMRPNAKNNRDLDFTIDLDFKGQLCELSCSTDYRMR
PRMT5/MEP50 complex, sequence (O14744 whole entry): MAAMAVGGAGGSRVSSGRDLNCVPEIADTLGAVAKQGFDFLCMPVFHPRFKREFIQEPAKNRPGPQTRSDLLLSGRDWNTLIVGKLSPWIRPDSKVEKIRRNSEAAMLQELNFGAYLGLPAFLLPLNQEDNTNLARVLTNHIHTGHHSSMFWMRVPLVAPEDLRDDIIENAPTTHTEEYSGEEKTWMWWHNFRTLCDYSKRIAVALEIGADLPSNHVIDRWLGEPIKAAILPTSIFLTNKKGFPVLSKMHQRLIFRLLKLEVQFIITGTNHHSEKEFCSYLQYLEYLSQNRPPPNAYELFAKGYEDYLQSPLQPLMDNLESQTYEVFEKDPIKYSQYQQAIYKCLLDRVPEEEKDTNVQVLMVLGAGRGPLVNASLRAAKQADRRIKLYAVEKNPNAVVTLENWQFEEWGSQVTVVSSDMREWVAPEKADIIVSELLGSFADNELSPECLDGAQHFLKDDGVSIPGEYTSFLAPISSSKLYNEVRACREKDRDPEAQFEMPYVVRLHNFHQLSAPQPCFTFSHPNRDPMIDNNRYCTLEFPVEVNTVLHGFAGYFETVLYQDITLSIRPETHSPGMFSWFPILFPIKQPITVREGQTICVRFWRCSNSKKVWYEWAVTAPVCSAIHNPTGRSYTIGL
PRMT5/MEP50 complex, sequence (Q9BQA1 whole entry, further chain): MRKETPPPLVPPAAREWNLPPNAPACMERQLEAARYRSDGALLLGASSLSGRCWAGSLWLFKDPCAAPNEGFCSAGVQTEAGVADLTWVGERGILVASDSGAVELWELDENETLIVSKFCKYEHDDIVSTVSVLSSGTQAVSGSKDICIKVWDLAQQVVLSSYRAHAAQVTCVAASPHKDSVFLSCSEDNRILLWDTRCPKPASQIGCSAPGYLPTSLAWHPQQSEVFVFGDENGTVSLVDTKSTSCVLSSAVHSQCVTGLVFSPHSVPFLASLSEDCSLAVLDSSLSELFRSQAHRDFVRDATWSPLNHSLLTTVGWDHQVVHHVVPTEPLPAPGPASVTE
Protein arginine N-methyltransferase 5, sequence (O14744 whole entry): as the sequence (O14744 whole entry) above

For `Nc1ncnc2c1ncn2[C@@H]1O[C@H](CSCCCCNCc2cccc(-c3ccc(Cl)cc3)c2)[C@@H](O)[C@H]1O`, the IC50 is 1200 nM in [1]; 1600 nM in test [2]; 140 nM in test [3]; 150 nM at PRMT5/MEP50 complex; 1500 nM in [4]; less than 2.5 nM in [5]. In [6], the IC50 amounted to 7000 nM.

On to `N=C(NCCSC[C@H]1O[C@@H](n2cnc3c(N)ncnc32)[C@H](O)[C@@H]1O)Nc1ccccc1Br`, for which the concentration for half-maximal inhibition (IC50) in test [7] was determined as 30.5 nM; in [8] it was 321 nM; in test [9] it was 5.05 nM; in [10], 18.2 nM; in test [11] it was 555 nM; in test [12], 32.1 nM.

Take `Nc1nc2cc(CC[C@H]3C[C@@H](n4ccc5c(N)ncnc54)[C@H](O)[C@@H]3O)ccc2cc1Br` [ONAMETOSTAT]: the IC50 in test [7], in test [13], in test [8], in test [9], in test [11] and in test [12] was more than 10000 nM in each case.
